Measured values reported in patent publication US7323447B2, “Hepatitis C virus inhibitors” (Bristol-Myers Squibb Company, priority 2005, dated 2008).
Read-outs that look alike come from different tables or passages of the source.

Legend:
[1] = biological target: T1, HCV NS3/4A protease complex (BMS strain) (UniProt P27958); assay: FRET peptide assay to monitor HCV NS3/4A proteolytic activity, BMS strain; assay type: biochemical, Hepatitis C virus (genotype 1a); conditions: read-out: IC50 Range; HCV NS3/4A enzyme assay; Table 1
T1 construct: other: HCV NS3/4A enzyme assay; said of H77 and J4L6S; fused on or other part: Three-lysine solubilising tail at the NS4A C-terminus and a His tag from pET21b (Ni-NTA purification), for the H77 and J4L6S constructs
T1 sequence (P27958 1027-1657, one chain of several): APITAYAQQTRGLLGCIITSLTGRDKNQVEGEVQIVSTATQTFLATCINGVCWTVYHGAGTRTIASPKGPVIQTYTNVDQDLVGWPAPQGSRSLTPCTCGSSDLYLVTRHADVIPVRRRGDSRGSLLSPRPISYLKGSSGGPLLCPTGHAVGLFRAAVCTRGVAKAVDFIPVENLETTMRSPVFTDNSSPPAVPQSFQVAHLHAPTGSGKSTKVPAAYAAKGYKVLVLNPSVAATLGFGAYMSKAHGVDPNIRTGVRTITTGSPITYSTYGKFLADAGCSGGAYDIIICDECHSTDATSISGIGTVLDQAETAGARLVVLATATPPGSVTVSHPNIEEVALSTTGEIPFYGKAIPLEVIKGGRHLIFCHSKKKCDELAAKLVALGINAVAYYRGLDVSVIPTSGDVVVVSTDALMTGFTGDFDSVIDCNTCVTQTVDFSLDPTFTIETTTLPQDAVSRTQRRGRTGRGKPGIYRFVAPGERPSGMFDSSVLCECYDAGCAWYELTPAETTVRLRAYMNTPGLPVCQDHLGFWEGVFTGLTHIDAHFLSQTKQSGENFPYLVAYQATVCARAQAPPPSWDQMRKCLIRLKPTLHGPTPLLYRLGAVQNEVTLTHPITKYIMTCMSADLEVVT
Excerpt: HCV NS3 protease complexes, derived from the BMS strain, H77 strain or J4L6S strain, were generated, as described below. These purified recombinant proteins were generated for use in a homogeneous assay (see below) to provide an indication of how effective compounds of the present disclosure would be in inhibiting HCV NS3 proteolytic activity.
Serum from an HCV-infected patient was obtained from Dr. T. Wright, San Francisco Hospital. An engineered full-length cDNA (compliment deoxyribonucleic acid) template of the HCV genome (BMS strain) was constructed from DNA fragments obtained by reverse transcription-PCR (RT-PCR) of serum RNA (ribonucleic acid) and using primers selected on the basis of homology between other genotype 1a strains. From the determination of the entire genome sequence, a genotype 1a was assigned to the HCV isolate according to the classification of Simmonds et al. (See P Simmonds, K A Rose, S Graham, S W Chan, F McOmish, B C Dow, E A Follett, P L Yap and […] Marsden, J. Clin. Microbiol., 31(6), 1493-1503 (1993)). […] The infectious clones, H77 (1a genotype) and J4L6S (1b genotype) were obtained from R. Purcell (NIH) and the sequences are published in Genbank (AAB67036, see Yanagi, M., Purcell, R. H., Emerson, S. U. and Bukh, J. Proc. Natl. Acad. Sci. U.S.A. 94(16), 8738-8743 (1997); AF054247, see Yanagi, M., St Claire, M., Shapiro, M., Emerson, S. U., Purcell, R. H. and Bukh, J, Virology 244 (1), 161-172. (1998)).
NS3/4A protease complex-containing fractions were pooled and loaded on a desalting column Superdex-S200 pre-equilibrated with buffer D (25 mM HEPES, pH 7.5, 20% glycerol, 300 mM NaCl, 0.2% Triton X-100, 10 mM βME). Sample was loaded at a flow rate of 1 mL/min. NS3/4A protease complex-containing fractions were pooled and concentrated to approximately 0.5 mg/ml. The purity of the NS3/4A protease complexes, derived from the BMS, H77 and J4L6S strains, were judged to be greater than 90% by SDS-PAGE and mass spectrometry analyses. The enzyme was stored at −80° C., thawed on ice and diluted prior to use in assay buffer.
The purpose of this in vitro assay was to measure the inhibition of HCV NS3 protease complexes, derived from the BMS strain, H77 strain or J4L6S strain, as described above, by compounds of the present disclosure. This assay provides an indication of how effective compounds of the present disclosure would be in inhibiting HCV NS3 proteolytic activity.
In order to monitor HCV NS3/4A protease activity, an NS3/4A peptide substrate was used. The substrate was RET S1 (Resonance Energy Transfer Depsipeptide Substrate; AnaSpec, Inc. cat # 22991) (FRET peptide), described by Taliani et al. in Anal. Biochem. 240(2):60-67 (1996). The sequence of this peptide is loosely based on the NS4A/NS4B natural cleavage site for the HCV NS3 protease except there is an ester linkage rather than an amide bond at the cleavage site. The peptide also contains a fluorescence donor, EDANS, near one end of the peptide and an acceptor, DABCYL, near the other end. The fluorescence of the peptide is quenched by […] resonance energy transfer (RET) between the donor and the acceptor, but as the NS3 protease cleaves the peptide the products are released from RET quenching and the fluorescence of the donor becomes apparent.
The peptide substrate was incubated with one of the three recombinant NS3/4A protease complexes, in the absence or presence of a compound of the present disclosure. The inhibitory effects of a compound were determined by monitoring the formation of fluorescent reaction product in real time using a Cytofluor Series 4000.
Assay buffer: 50 mM HEPES, pH 7.5; 0.15 M NaCl; 0.1% Triton; 15% Glycerol; 10 mM βME. Substrate: 2 μM final concentration (from a 2 mM stock solution in DMSO stored at −20° C.). HCV NS3/4A protease type 1a (1b), 2-3 nM final concentration (from a 5 μM stock solution in 25 mM HEPES, pH 7.5, 20% glycerol, 300 mM NaCl, 0.2% Triton-X100, 10 mM βME). […]

[2] = test system: HCV replicon in HUH-7 cells; assay: HCV replicon FRET assay; assay type: cell-based, Hepatitis C virus (strain 1b); conditions: Table 1
Excerpt: An HCV replicon whole cell system was established as described by Lohmann V, Korner F, Koch J, Herian U, Theilmann L, Bartenschlager R., Science 285(5424): 110-3 (1999). This system enabled us to evaluate the effects of our HCV Protease compounds on HCV RNA replication. Briefly, using the HCV strain 1b sequence described in the Lohmann paper (Assession number: AJ238799), an HCV cDNA was synthesized by Operon Technologies, Inc. (Alameda, Calif.), and the full-length replicon was then assembled in plasmid pGem9zf(+) (Promega, Madison, Wis.) using standard molecular biology techniques. The replicon consists of (i) the HCV 5′ UTR fused to the first 12 amino acids of the capsid protein, (ii) the neomycin phosphotransferase gene (neo), (iii) the IRES from encephalomyocarditis virus (EMCV), and (iv) HCV NS3 to NS5B genes and the HCV 3′ UTR. Plasmid DNAs were linearized with ScaI and RNA transcripts were synthesized in vitro using the T7 MegaScript transcription kit (Ambion, Austin, Tex.) according to manufacturer's directions. In vitro transcripts of the cDNA were transfected into the human hepatoma cell line, HUH-7. […] Resulting cell lines were characterized for positive and negative strand RNA production and protein production over time.
The HCV replicon FRET assay was developed to monitor the inhibitory effects of compounds described in the disclosure on HCV viral replication. HUH-7 cells, constitutively expressing the HCV replicon, were grown in Dulbecco's Modified Eagle Media (DMEM) (Gibco-BRL) containing 10% Fetal calf serum (FCS) (Sigma) and 1 mg/ml G418 (Gibco-BRL). Cells were seeded the night before (1.5×10^4 cells/well) in 96-well tissue-culture sterile plates. Compound and no compound controls were prepared in DMEM containing 4% FCS, 1:100 Penicillin/Streptomysin (Gibco-BRL), 1:100 L-glutamine and 5% DMSO in the dilution plate (0.5% DMSO final concentration in the assay). Compound/DMSO mixes were added to the cells and incubated for 4 days at 37° C. After 4 days, cells were first assessed for cytotoxicity using alamar Blue (Trek Diagnotstic Systems) for a CC50 reading. The toxicity of compound (CC50) was determined by adding 1/10th volume of alamarBlue to the media incubating the cells. After 4 h, the fluorescence signal from each well was read, with an excitation wavelength at 530 nm and an emission wavelength of 580 nm, using the Cytofluor Series 4000 (Perspective Biosystems). Plates were then rinsed thoroughly with Phosphate-Buffered Saline (PBS) (3 times 150 μl). The cells were lysed with 25 μl of a lysis assay reagent containing an HCV protease substrate (5× cell Luciferase cell culture lysis reagent (Promega #E153A) diluted to 1× with distilled water, NaCl added to 150 mM final, the FRET peptide substrate (as described for the enzyme assay above) diluted to 10 μM final from a 2 mM stock in 100% DMSO. The plate was then placed into the Cytofluor 4000 instrument which had been set to 340 nm excitation/490 nm emissions, automatic mode for 21 cycles and the plate read in a kinetic mode. EC50 determinations were carried out as described for the IC50 determinations.

[3] = Hepatitis C virus, Huh-7, read-out: EC50 Range, HCV replicon cell assay
[4] = read-out: EC50 Range, HCV replicon cell assay

| Structure (SMILES) | IC50 [1] [nM] | EC50 [2, 3] [nM] | EC50 [2, 4] [nM] |
| --- | --- | --- | --- |
| C=C[C@@H]1C[C@]1(NC(=O)[C@@H]1C[C@@H](Oc2nccc3ccccc23)CN1C(=O)[C@@H](OC(=O)Nc1ccccc1OC)C(C)(C)C)C(=O)NS(=O)(=O)C1CC1 [Example 29] | 100 to 1000 | 500 to 5000 |  |
| C=C[C@@H]1C[C@]1(NC(=O)[C@@H]1C[C@@H](Oc2nccc3ccccc23)CN1C(=O)[C@@H](OC(=O)Nc1ccc(F)cc1)C(C)(C)C)C(=O)NS(=O)(=O)C1CC1 [Example 30] | 100 to 1000 | 500 to 5000 |  |
| C=C[C@@H]1C[C@]1(NC(=O)[C@@H]1C[C@@H](Oc2nccc3ccccc23)CN1C(=O)[C@@H](OC(=O)Nc1ccc(OC)cc1)C(C)(C)C)C(=O)NS(=O)(=O)C1CC1 [Example 31] | 100 to 1000 | 500 to 5000 |  |
| C=C[C@@H]1C[C@]1(NC(=O)[C@@H]1C[C@@H](Oc2nccc3ccccc23)CN1C(=O)[C@@H](OC(=O)Nc1ccccc1C(C)C)C(C)(C)C)C(=O)NS(=O)(=O)C1CC1 [Example 32] | 100 to 1000 | 500 to 5000 |  |
| C=C[C@@H]1C[C@]1(NC(=O)[C@@H]1C[C@@H](Oc2nccc3ccccc23)CN1C(=O)[C@@H](OC(=O)Nc1ccc(C(C)(C)C)cc1)C(C)(C)C)C(=O)NS(=O)(=O)C1CC1 [Example 33] | 100 to 1000 | 500 to 5000 |  |
| C=C[C@@H]1C[C@]1(NC(=O)[C@@H]1C[C@@H](Oc2nccc3cc(OC)ccc23)CN1C(=O)[C@@H](O)C(C)C)C(=O)NS(=O)(=O)C1CC1 [Example 50Compound 50] | 100 to 1000 |  | 500 to 5000 |
| C=C[C@@H]1C[C@]1(NC(=O)[C@@H]1C[C@@H](Oc2nccc3cc(OC)ccc23)CN1C(=O)[C@@H](OC(=O)NC1CCCC1)C(C)C)C(=O)NS(=O)(=O)C1CC1 [Example 51Compound 51] | < 100 |  | 500 to 5000 |
| C=C[C@@H]1C[C@]1(NC(=O)[C@@H]1C[C@@H](Oc2nccc3cc(OC)ccc23)CN1C(=O)[C@@H](OC(=O)NC1(C(F)(F)F)CC1)C(C)C)C(=O)NS(=O)(=O)C1CC1 [Example 54Compound 54] | 100 to 1000 | 500 to 5000 |  |
| C=C[C@@H]1C[C@]1(NC(=O)[C@@H]1C[C@@H](Oc2cc(-c3cccs3)cc(-c3ccccc3)n2)CN1C(=O)[C@@H](OC(=O)NC(C)(C)C)C(C)(C)C)C(=O)NS(=O)(=O)C1CC1 [Example 55Compound 55] | < 100 | 500 to 5000 |  |
| C=C[C@@H]1C[C@]1(NC(=O)[C@@H]1C[C@@H](Oc2ncnc3ccccc23)CN1C(=O)[C@@H](OC(=O)NC(C)(C)C)C(C)(C)C)C(=O)NS(=O)(=O)C1CC1 [Example 57Compound 57] | 100 to 1000 | 500 to 5000 |  |
| C=C[C@@H]1C[C@]1(NC(=O)[C@@H]1C[C@@H](Oc2nccc3cc(OC)ccc23)CN1C(=O)[C@@H](OC(=O)NC(C)(C)C)C(C)(C)C)C(=O)NS(=O)(=O)N(C)C [Example 58Compound 58] | < 100 | 500 to 5000 |  |
| C=C[C@@H]1C[C@]1(NC(=O)[C@@H]1C[C@@H](Oc2nccc3cc(OC)ccc23)CN1C(=O)[C@@H](OC(=O)NC(C)(C)C)C(C)(C)C)C(=O)NS(=O)(=O)c1ccccc1 [Example 59Compound 59] | 100 to 1000 | 500 to 5000 |  |
| C=C[C@@H]1C[C@]1(NC(=O)[C@@H]1C[C@@H](Oc2nccc3cc(OC)ccc23)CN1C(=O)[C@@H](OC(=O)NC(C)(C)C)C(C)(C)C)C(=O)NS(=O)(=O)c1cn(C)cn1 [Example 60Compound 60] | > 1000 | > 5000 |  |
| C=C[C@@H]1C[C@]1(NC(=O)[C@@H]1C[C@@H](Oc2nc(-c3ccc(OC(F)(F)F)cc3)cc3cc(OC)ccc23)CN1C(=O)[C@@H](O)[C@@H](C)CC)C(=O)NS(=O)(=O)C1CC1 [Example 61Compound 61] | 100 to 1000 | 500 to 5000 |  |
| C=C[C@@H]1C[C@]1(NC(=O)[C@@H]1C[C@@H](Oc2nc(-c3ccc(OC(F)(F)F)cc3)cc3cc(OC)ccc23)CN1C(=O)[C@@H](O)C1CCCCC1)C(=O)NS(=O)(=O)C1CC1 [Example 62Compound 62] | 100 to 1000 | 500 to 5000 |  |
| C=C[C@@H]1C[C@]1(NC(=O)[C@@H]1C[C@@H](Oc2nc(-c3ccc(OC(F)(F)F)cc3)cc3cc(OC)ccc23)CN1C(=O)[C@@H](O)C(C)(C)COC)C(=O)NS(=O)(=O)C1CC1 [Example 63Compound 63] | < 100 | 500 to 5000 |  |
